One data set deals with carboxylesterase. In words: Effect of BNPP inhibition on the transformation of paeoniflorin in intestinal culture system. It is filed as cell-based, rat gut microbiota. Conditions: 24 h, 1 mg/mL paeoniflorin. As for the experimental part: The colon contents of six rats were pooled, and 5 g of the sample was transferred to a ziplock bag and then mixed thoroughly with anaerobic medium (100 mL). After mixing completely, the cultures were stored at 37°C and preincubated for 1 h. Then, 10 μL of paeoniflorin (100 mg/mL) was added to fresh rat intestinal microbial culture (990 μL) under anaerobic conditions of N2, with a final concentration of 1 mg/mL of paeoniflorin in the culture system ([Hattori et al., 1988]). The inactivated bacteria solution was used as a negative control. Cultures were incubated at 37°C for 0, 2, 6, 12, and 24 h, respectively. After terminated the reaction with 3 volumes of acetonitrile, samples were vortexed for 30 s and then centrifuged at 16,162 g for 5 min. A total of 100 μL of the supernatant were transferred to a centrifuge tube, centrifuged at 16,162 g for 5 min and filtered through a 0.45 μm microporous membrane. Finally, 5 μL of the filtrate solution was collected for analysis.
Consistent with the above steps, the carboxylesterase inhibitor BNPP (0.1, 1, 3, and 10 mM) was added to the culture system at different concentrations with a final concentration of 1 mg/mL paeoniflorin. Then, the cultures were incubated at 37°C for 0, 2, 6, 12, and 24 h. The intestinal culture system without BNPP was used as a control group.

The nature of data set [1]: Excretion of paeoniflorin in rats (urine, feces, bile). It is filed as in vivo, rat. The note with it: normal rats, paeoniflorin 20 mg/kg, excreted form = labelled substance, n = 6.
A short description of data set [2]: Brain distribution of paeoniflorin and benzoic acid in rats. It is filed as in vivo, rat. The note with it: at 2 h after oral administration of paeoniflorin 20 mg/kg.
Data set [3] is described as follows: Pharmacokinetics of paeoniflorin in normal SD rats (plasma, LC-MS/MS). It is filed as in vivo, rat. Conditions: normal rats, oral paeoniflorin 20 mg/kg, plasma analyte = labelled substance. On the procedure:
Chromatography separation was performed using an XSS T3 column (3.5 μm, 2.1 mm × 100 mm, Waters, Milford, MA, United States) with the column temperature maintained at 40°C at a flow rate of 0.4 mL/min. […] The gradient was as follows: 25% eluent B for 2 min; 25–85% B from 2 to 4 min; 85–25% B from 4 to 5 min and held at 25% from 5 to 7 min. The autosampler temperature was set to 4°C. Mass spectrometry was carried out using multiple reaction monitoring mode (MRM). […] The nebulizing gas flow rate was 2.8 L/min, the drying gas flow rate was 10 L/min, and the heating gas flow rate was 10 L/min. […] Plasma samples were immediately stored at 4°C until analysis. The method validation assays were carried out in terms of specificity, linearity, sensitivity, accuracy, precisions, recovery, matrix effect and stability. […] Statistical analyses were conducted using two-way ANOVA and Student’s t-test with GraphPad Prism Version 5 (GraphPad Software, La Jolla, CA, United States). The data are expressed as the means ± standard deviation. […] DAS 3.0 was used to calculate the plasma pharmacokinetic parameters.

A short description of data set [4]: Pharmacokinetics of paeoniflorin in pseudo-germ-free (PGF) rats. It is filed as in vivo. Conditions: SD, rat, in vivo, oral paeoniflorin 20 mg/kg, plasma analyte = labelled substance; for AUC(0-t) / Cmax: po, 20 mg/kg. As for the experimental part: Chromatography separation was performed using an XSS T3 column (3.5 μm, 2.1 mm × 100 mm, Waters, Milford, MA, United States) with the column temperature maintained at 40°C at a flow rate of 0.4 mL/min. […] The gradient was as follows: 25% eluent B for 2 min; 25–85% B from 2 to 4 min; 85–25% B from 4 to 5 min and held at 25% from 5 to 7 min. The autosampler temperature was set to 4°C. Mass spectrometry was carried out using multiple reaction monitoring mode (MRM). […] The nebulizing gas flow rate was 2.8 L/min, the drying gas flow rate was 10 L/min, and the heating gas flow rate was 10 L/min. […] The remaining fourteen SD rats were orally administered saline equivalently. Two days after administration, pharmacokinetic experiments were performed. […] Plasma samples were immediately stored at 4°C until analysis. Statistical analyses were conducted using two-way ANOVA and Student’s t-test with GraphPad Prism Version 5 (GraphPad Software, La Jolla, CA, United States). The data are expressed as the means ± standard deviation. […] DAS 3.0 was used to calculate the plasma pharmacokinetic parameters.

The nature of data set [5]: Excretion of paeoniflorin in rats (urine, feces, bile). The format is in vivo, rat. Conditions: normal rats, oral paeoniflorin 20 mg/kg, excreted form = labelled substance, n = 6. On the procedure:
Then, urine samples and feces samples were collected at 0, 6, 12, 24, 48, 72, and 96 h.

Another data set has as its system depressed rats. In words: Chronic unpredictable stress depression model, sucrose preference test. The format is in vivo, rat. The note with it: 10 mg/kg, after 2 weeks of drug treatment, compared with model group, n = 8. On the procedure: Forty rats were randomly divided into the following groups (n = 8): the normal control group, the model control group, the fluoxetine group (10 mg/kg), the paeoniflorin low-dose group (10 mg/kg), and the paeoniflorin high-dose group (20 mg/kg). Except for the blank control group, the groups were randomly exposed to two stressors, including behavioral constraints, ice water swimming, electric shock, cold stimulation, clip tail, wet bedding, light/dark reversed, shaking, foods and water deprivation, continuously for 8 weeks to establish a chronic unpredictable stress model. The sucrose preference test was performed at 0 and 14 days after administration.

The mark [6] stands for this setting: PGF rats (antibiotic pretreated).

With `O=[N+]([O-])c1ccc(OP(=O)(O)Oc2ccc([N+](=O)[O-])cc2)cc1` [BNPP, bis-p-nitrophenyl phosphate], the “inhibition rate of the conversion of paeoniflorin to benzoic acid” value with carboxylesterase (BNPP 0.1 mM) worked out at 8.2%; in the data set with carboxylesterase (BNPP 1 mM) it was 46.8%; with carboxylesterase (BNPP 3 mM), 63.7%; with carboxylesterase (BNPP 10 mM) it was 74.9%.

Consider `O=C(O)c1ccccc1` [Benzoic acid, benzoic acid], for which, in data set [1], the “cumulative excretion rate in bile for 60 h” value is on record as “No benzoic acid was detected”. For the same compound, the “detection in SD rat brains” value in data set [2] is “considerable number”. The exposure AUC(0-t) (usually the area under the concentration-time curve up to a stated or last time point) turned out to be 151 ng·h/mL in data set [3] (SD, rat, in vivo, po, 20 mg/kg, Figures 2C, 3B, 3C, read-out: AUC(0-t) (unit inferred)); 151 ng·h/mL in data set [3] (SD, rat, in vivo, po, 20 mg/kg, n = 6, read-out: AUC (0-t)); 151.24 ± 29.59 ng·h/mL in data set [3] (n = 6); 94.8 ± 19.8 ng·h/mL in data set [4] (PGF rats (antibiotic pretreated), read-out: AUC (0-t)); 68.5 ng·h/mL in data set [4] (PGF rats, Figures 3B, 3C, read-out: AUC(0-t) (unit inferred)). Besides, the highest concentration (Cmax) (usually the peak of the concentration-time curve) in data set [3] (SD, rat, in vivo, po, 20 mg/kg, Figures 2C, 3B, 3C, read-out: Cmax (unit inferred)) came out at 55.6 ng/mL; in data set [3] (SD, rat, in vivo, po, 20 mg/kg, n = 6, read-out: Cmax), 55.6 ± 12.1 ng/mL; in data set [3] (SD, rat, in vivo, po, 20 mg/kg, read-out: Cmax), 55.6 ng/mL; in data set [4] (PGF rats (antibiotic pretreated), read-out: Cmax), 27.6 ± 2.63 ng/mL; in data set [4] (PGF rats, Figures 3B, 3C, read-out: Cmax (unit inferred)) it was 25.4 ng/mL. The area under the curve AUC(0-inf) (in general, the area under the concentration-time curve extrapolated to infinity) in data set [3] (SD, rat, in vivo, n = 6) amounted to 162 ± 40.1 ng·h/mL; in data set [4] (setting [6]), 97.2 ± 20.2 ng·h/mL. Besides, the time to peak (Tmax) – broadly, the time from dosing to the highest level – worked out at 47.5 ± 11.3 min in data set [3] (SD, rat, in vivo, n = 6) and 35.8 ± 14.3 min in data set [4] (setting [6]). For the same compound, the “96-h cumulative excretion in feces” value in data set [5] was 0.15%. Also, the “96-h cumulative excretion in urine” value in data set [5] was determined as 42.13%.

As for `CNCCC(Oc1ccc(C(F)(F)F)cc1)c1ccccc1` (centres unmarked) [fluoxetine, reference compound], in the data set with depressed rats, the sucrose preference value entry is recorded as “significantly higher than that of the model control group”.

Source of the values: publication PMC6435784, “Gut Microbiota-Based Pharmacokinetics and the Antidepressant Mechanism of Paeoniflorin” (Frontiers in Pharmacology, 2019).
